# From patent publication US10669276B2, “Fused pyrimidine derivatives” (Hoffmann-La Roche Inc., priority 2016, dated 2020)
# Target: γ-secretase (Homo sapiens (Human), UniProt P49768)
# Experiment: Cellular γ-secretase assay (Aβ42 secretion, AlphaLisa)
# Assay type: cell-based
# Details: inhibition of Aβ42 secretion; human neuroglioma H4 cells overexpressing human APP695 Swedish double mutation; 24 hr compound incubation
# Procedure: Human neuroglioma H4 cells overexpressing human APP695 with the Swedish double mutation (K595N/M596L) were plated at 30,000 cells/well/100 μl in 96-well plates in IMDM media containing 10% FCS, 0.2 mg/l Hygromycin B and incubated at 37° C., 5% CO2.
# 3-4 hr post plating, compounds are a diluted in media and 50 μl is added as […] concentrate to achieve the final concentration. Compound incubation is performed for 24 hr. Final doses typically range from 4 μM down to 0.0013 μM in half-log steps resulting in an eight point dose response curve. Appropriate controls using vehicle only and reference compound were applied to this assay. The final concentration of Me2SO was 0.4%.
# After incubation at 37° C., 5% CO2, the supernatant was subjected to quantification of secreted Aβ42 by the means of an AlphaLisa assay kit (Human Amyloid beta 1-42 Kit: Cat # AL203C, Perkin Elmer). 20 μl of the cell culture supernatant was transferred to an assay plate. Then 10 μl of a mixture of the AlphaLisa coupled capture antibody and the biotinylated detection antibody was added and incubated for 3 hours at room temperature while softly shaking the assay plate. After a further addition of 20 μl of the Donor beads the assay plate was incubated for 30 min at room temperature and constant shaking without exposure to direct light. The assay plate was then read on a Paradigm AlphaLisa Reader using the build-in program with excitation at 680 nm and emission at […]. The measured signals were then used to calculate IC50 values for inhibition of Aβ42 secretion by nonlinear regression fit analysis using XLfit 5.3 software (IDBS).
row,Compound,EC50
1,"CNc1nc(Nc2ccc(-n3cnc(C)n3)cc2)nc2c1C(C)(C)CN2c1ccc(F)cc1 [Example 10, 7-(4-Fluorophenyl)-N4,5,5-trimethyl-N2-(4-(3-methyl-1H-1,2,4-triazol-1-yl)phenyl)-6,7-dihydro-5H-pyrrolo[2,3-d]pyrimidine-2,4-diamine]",51 nM
2,"CNc1nc(Nc2cnc(-n3cnc(C)c3)c(F)c2)nc2c1C(C)(C)CN2c1ccc(F)cc1F [Example 26, 7-(2,4-Difluorophenyl)-N2-(5-fluoro-6-(4-methyl-1H-imidazol-1-yl)pyridin-3-yl)-N4,5,5-trimethyl-6,7-dihydro-5H-pyrrolo[2,3-d]pyrimidine-2,4-diamine]",6 nM
3,"CNc1nc(Nc2ccc(-n3cnc(C)n3)c(OC)c2)nc2c1C(C)CN2c1ccc(F)cc1 (stereo not shown) [Example 39, 7-(4-Fluorophenyl)-N2-(3-methoxy-4-(3-methyl-1H-1,2,4-triazol-1-yl)phenyl)-N4,5-dimethyl-6,7-dihydro-5H-pyrrolo[2,3-d]pyrimidine-2,4-diamine]",6 nM
4,"CNc1nc(Nc2ccc(-c3nnc(C)o3)cc2)nc2c1C(C)(C)CN2c1ccc(F)cc1 [Example 47, 7-(4-Fluorophenyl)-N4,5,5-trimethyl-N2-(4-(5-methyl-1,3,4-oxadiazol-2-yl)phenyl)-6,7-dihydro-5H-pyrrolo[2,3-d]pyrimidine-2,4-diamine]",55 nM
5,"CNc1nc(Nc2ccc(-n3cnc(C)c3)cc2)nc2c1C(C)(C)CN2c1ccc(F)cc1 [Example 12, 7-(4-Fluorophenyl)-N4,5,5-trimethyl-N2-(4-(4-methyl-1H-imidazol-1-yl)phenyl)-6,7-dihydro-5H-pyrrolo[2,3-d]pyrimidine-2,4-diamine]",13 nM
6,"CNc1nc(Nc2cnc(-n3cnc(Cl)c3)c(OC)c2)nc2c1C(C)(C)CN2c1ccc(F)c(F)c1 [Example 14, N2-(6-(4-Chloro-1H-imidazol-1-yl)-5-methoxypyridin-3-yl)-7-(3,4-difluorophenyl)-N4,5,5-trimethyl-6,7-dihydro-5H-pyrrolo[2,3-d]pyrimidine-2,4-diamine]",10 nM
7,"CNc1nc(Nc2cnc(-n3cnc(C)c3)c(F)c2)nc2c1C(C)(C)CCN2c1ccc(F)cc1 [Example 36, N2-(5-Fluoro-6-(4-methyl-1H-imidazol-1-yl)pyridin-3-yl)-8-(4-fluorophenyl)-N4,5,5-trimethyl-5,6,7,8-tetrahydropyrido[2,3-d]pyrimidine-2,4-diamine]",14 nM
8,"CNc1nc(Nc2ccc(-n3cc(C)nc3C)c(F)c2)nc2c1C(C)(C)CN2c1ccc(F)cc1 [Example 11, N2-(4-(2,4-Dimethyl-1H-imidazol-1-yl)-3-fluorophenyl)-7-(4-fluorophenyl)-N4,5,5-trimethyl-6,7-dihydro-5H-pyrrolo[2,3-d]pyrimidine-2,4-diamine]",33 nM
9,"CNc1nc(Nc2ccc(-n3cnc(C)n3)c(OC)c2)nc2c1C(C)(C)CN2c1cccc(F)c1F [Example 41, 7-(2,3-Difluorophenyl)-N2-(3-methoxy-4-(3-methyl-1H-1,2,4-triazol-1-yl)phenyl)-N4,5,5-trimethyl-6,7-dihydro-5H-pyrrolo[2,3-d]pyrimidine-2,4-diamine]",9 nM
10,"CNc1nc(Nc2ccc(-n3cnc(C)n3)c(OC)c2)nc2c1C(C)(C)CN2c1ccc(F)cc1F [Example 19, 7-(2,4-Difluorophenyl)-N2-(3-methoxy-4-(3-methyl-1H-1,2,4-triazol-1-yl)phenyl)-N4,5,5-trimethyl-6,7-dihydro-5H-pyrrolo[2,3-d]pyrimidine-2,4-diamine]",8 nM
11,"CNc1nc(Nc2ccc(-n3ncnc3C)c(F)c2)nc2c1C(C)(C)CN2c1ccc(F)cc1 [Example 5, N2-(3-Fluoro-4-(5-methyl-1H-1,2,4-triazol-1-yl)phenyl)-7-(4-fluorophenyl)-N4,5,5-trimethyl-6,7-dihydro-5H-pyrrolo[2,3-d]pyrimidine-2,4-diamine]",22 nM
12,"CNc1nc(Nc2cnc(-n3cnc(C)c3)c(OC)c2)nc2c1C(C)(C)CN2C1CC(F)(F)C1 [Example 18, 7-(3,3-Difluorocyclobutyl)-N2-(5-methoxy-6-(4-methyl-1H-imidazol-1-yl)pyridin-3-yl)-N4,5,5-trimethyl-6,7-dihydro-5H-pyrrolo[2,3-d]pyrimidine-2,4-diamine]",14 nM
13,"CNc1nc(Nc2cnc(-n3cnc(C)c3)c(F)c2)nc2c1C(C)(C)CN2c1ccc(F)cc1 [Example 25, N2-(5-Fluoro-6-(4-methyl-1H-imidazol-1-yl)pyridin-3-yl)-7-(4-fluorophenyl)-N4,5,5-trimethyl-6,7-dihydro-5H-pyrrolo[2,3-d]pyrimidine-2,4-diamine]",8 nM
14,"CNc1nc(Nc2ccc(-n3cnc(C)c3)c(F)c2)nc2c1[C@H](C)CN2c1ccc(F)cc1 (single isomer, unassigned) [Example 46p, (S)- or (R)—N2-(3-Fluoro-4-(4-methyl-1H-imidazol-1-yl)phenyl)-7-(4-fluorophenyl)-N4,5-dimethyl-6,7-dihydro-5H-pyrrolo[2,3-d]pyrimidine-2,4-diamine]",5 nM
15,"COc1cc(Nc2nc(NCCO)c3c(n2)N(c2ccc(F)cc2)CC3(C)C)cnc1-n1cnc(C)c1 [Example 29, 2-((7-(4-Fluorophenyl)-2-((5-methoxy-6-(4-methyl-1H-imidazol-1-yl)pyridin-3-yl)amino)-5,5-dimethyl-6,7-dihydro-5H-pyrrolo[2,3-d]pyrimidin-4-yl)amino)ethanol]",6 nM
16,"CNc1nc(Nc2ccc(-c3cnc(C)o3)c(F)c2)nc2c1C(C)(C)CN2c1ccc(F)cc1 [Example 16, N2-(3-Fluoro-4-(2-methyloxazol-5-yl)phenyl)-7-(4-fluorophenyl)-N4,5,5-trimethyl-6,7-dihydro-5H-pyrrolo[2,3-d]pyrimidine-2,4-diamine]",30 nM
17,"CNc1nc(Nc2ccc(-n3cnc(C)n3)c(OC)c2)nc2c1C(C)(C)CCN2c1ccc(F)cc1 [Example 35, 8-(4-Fluorophenyl)-N2-(3-methoxy-4-(3-methyl-1H-1,2,4-triazol-1-yl)phenyl)-N4,5,5-trimethyl-5,6,7,8-tetrahydropyrido[2,3-d]pyrimidine-2,4-diamine]",13 nM
18,"CNc1nc(Nc2ccc(-n3cnc(C)n3)nc2)nc2c1C(C)(C)CN2c1ccc(F)cc1 [Example 13, 7-(4-Fluorophenyl)-N4,5,5-trimethyl-N2-(6-(3-methyl-1H-1,2,4-triazol-1-yl)pyridin-3-yl)-6,7-dihydro-5H-pyrrolo[2,3-d]pyrimidine-2,4-diamine]",23 nM
19,"CNc1nc(Nc2ccc(-n3cnc(C)n3)c(OC)c2)nc2c1C(C)(C)CN2c1ccc(F)cc1 [Example 1, 7-(4-Fluorophenyl)-N2-(3-methoxy-4-(3-methyl-1H-1,2,4-triazol-1-yl)phenyl)-N4,5,5-trimethyl-6,7-dihydro-5H-pyrrolo[2,3-d]pyrimidine-2,4-diamine]",5 nM
20,"CNc1nc(Nc2ccc(-n3cnc(C)n3)c(OC)c2)nc2c1CCN2c1ccc(F)cc1 [Example 32, 7-(4-Fluorophenyl)-N2-(3-methoxy-4-(3-methyl-1H-1,2,4-triazol-1-yl)phenyl)-N4-methyl-6,7-dihydro-5H-pyrrolo[2,3-d]pyrimidine-2,4-diamine]",10 nM
21,"CNc1nc(Nc2ccc(-n3cnc(C)n3)c(F)c2)nc2c1C(C)(C)CN2c1ccc(F)cc1F [Example 24, 7-(2,4-Difluorophenyl)-N2-(3-fluoro-4-(3-methyl-1H-1,2,4-triazol-1-yl)phenyl)-N4,5,5-trimethyl-6,7-dihydro-5H-pyrrolo[2,3-d]pyrimidine-2,4-diamine]",22 nM
22,"CNc1nc(Nc2cnc(-n3cnc(C)c3)c(OC)c2)nc2c1C(C)CN2c1ccc(F)cc1 (stereo not shown) [Example 40, 7-(4-Fluorophenyl)-N2-(5-methoxy-6-(4-methyl-1H-imidazol-1-yl)pyridin-3-yl)-N4,5-dimethyl-6,7-dihydro-5H-pyrrolo[2,3-d]pyrimidine-2,4-diamine]",6 nM
23,"CNc1nc(Nc2ccc(-n3cnc(C)n3)c(OC(F)F)c2)nc2c1C(C)(C)CN2c1ccc(F)cc1 [Example 2, N2-(3-(Difluoromethoxy)-4-(3-methyl-1H-1,2,4-triazol-1-yl)phenyl)-7-(4-fluorophenyl)-N4,5,5-trimethyl-6,7-dihydro-5H-pyrrolo[2,3-d]pyrimidine-2,4-diamine]",8 nM
24,"CNc1nc(Nc2cnc(-n3cnc(C)c3)c(OC)c2)nc2c1C(C)(C)CN2c1ccc(F)c(F)c1 [Example 15, 7-(3,4-Difluorophenyl)-N2-(5-methoxy-6-(4-methyl-1H-imidazol-1-yl)pyridin-3-yl)-N4,5,5-trimethyl-6,7-dihydro-5H-pyrrolo[2,3-d]pyrimidine-2,4-diamine]",8 nM
25,"CNc1nc(Nc2cnc(-n3cnc(C)c3)c(OC)c2)nc2c1CCN2c1ccc(F)cc1 [Example 33, 7-(4-Fluorophenyl)-N2-(5-methoxy-6-(4-methyl-1H-imidazol-1-yl)pyridin-3-yl)-N4-methyl-6,7-dihydro-5H-pyrrolo[2,3-d]pyrimidine-2,4-diamine]",6 nM
